Common to all, as to assay type: in vivo
Series [1] has as its system silicosis model mice. The series is described as follows: Pulmonary function indices in SiO2-induced silicosis model mice. Particulars: oral, 28 days, 2 h after final administration, vs model group. The procedure: (§1) After acclimatization, 6-8-week-old male C57BL/6J mice were intratracheally instilled 40 μL of SiO2 suspension (600 mg/kg) on Day 1 (D1) to establish the silicosis model. On the same day (D1), the animals were randomly divided into 3 groups based on body weight and administered either the vehicle (model group) or Compound 007 (100 mg/kg or 150 mg/kg, once daily) via oral gavage for 28 consecutive days. A normal control group was also established, intratracheally instilled 40 μL of saline on D1 and orally administered sterile water.
Two hours after the final administration, mouse pulmonary function indices were measured.

Another series has as its system TGF-β. The series is described as follows: TGF-β detection in BALF of silicosis model mice. As to conditions: oral, 28 days, vs model group. As for the experimental part:
as §1
After the administration was completed, the animals were euthanized, and bronchoalveolar lavage fluid (BALF) was collected from randomly selected animals in each group for TGF-β detection.

The subject of series [2] is silicosis model mice. Description: Silicotic nodule scoring (Masson's Trichrome staining, King's five-point scale) in lung of silicosis model mice. As to conditions: 28 days; for silica-induced nodule formation and collagen fiber deposition: oral, Masson's Trichrome staining; for Silicotic Nodule Score (Mean ± SEM): oral gavage, score 0 to 5, model group 1.08 ± 0.27. The procedure: as §1
Lung tissues from all mice were collected, sectioned, and subjected to Masson's Trichrome staining and H&E staining for silicotic nodule scoring and inflammation scoring. Silicotic nodule scoring was performed using the King's five-point scale [Zhujie Cao, et al., Acta Pharmacologica Sinica, 2021], where the severity of silicotic nodules in lung tissue was scored from 0 to 5, with higher scores indicating more severe nodulation. H&E pathological scoring followed Szapiel's inflammation scoring criteria, where the degree of inflammatory cell infiltration in lung tissue was scored from 0 to 3, with higher scores indicating greater inflammation in the lung tissue (0: no inflammation or alveolitis: 1: mild, mononuclear cell infiltration with thickened alveolar septa, localized involvement, pleural lesions involving less than 20% of the lung, and well-preserved alveolar structure; 2: moderate, more extensive alveolitis involving 20%-50% of the lung, primarily pleural lesions; 3: severe, diffuse alveolitis involving over 50% of the lung, occasionally with mononuclear cell infiltration in the alveoli and interstitium and/or some hemorrhagic areas within the alveoli).

In series [3] the test system is silicosis model mice. The series is described as follows: Inflammation scoring (H&E staining, Szapiel's criteria) in lung tissue of silicosis model mice. Particulars: oral gavage, 28 days, score 0 to 3, model group 2.22 ± 0.28. As for the experimental part:
as §1
Lung tissues from all mice were collected, sectioned, and subjected to Masson's Trichrome staining and H&E staining for silicotic nodule scoring and inflammation scoring. Silicotic nodule scoring was performed using the King's five-point scale [Zhujie Cao, et al., Acta Pharmacologica Sinica, 2021], where the severity of silicotic nodules in lung tissue was scored from 0 to 5, with higher scores indicating more severe nodulation. […]

In series [4] the test system is silicosis model mice. Description: Mortality during 28-day dosing in silicosis model mice. As to conditions: 100 mg/kg or 150 mg/kg once daily, oral gavage, 28 consecutive days. As for the experimental part: as §1

The structures appear in SMILES notation.

With `Cn1c(C(=O)N2CC(F)(F)C2)cc2ccc(-c3nccc(Nc4ccc(-c5cn[nH]c5)cc4)n3)cc21` [Compound 007], the inspiratory capacity entry in the series on silicosis model mice [1] (100 mg/kg daily, p<0.05) was “significantly increased”; with silicosis model mice [1] (150 mg/kg daily, p<0.01) it was “significantly increased”. The respiratory system elastance entry with silicosis model mice [1] (100 mg/kg daily, p<0.05) is “decreased”; with silicosis model mice [1] (150 mg/kg daily, p<0.05), “decreased”. For the same molecule, the respiratory system resistance result in the series on silicosis model mice [1] (100 mg/kg daily, p<0.05) is “reduced”; in the series with silicosis model mice [1] (150 mg/kg daily, p<0.05), “reduced”. Further, the “TGF-β levels in BALF” value in the series on TGF-β (100 mg/kg daily, p<0.001) is “significantly reduced”; in the series on TGF-β (150 mg/kg daily, p<0.0001), “significantly reduced”. In addition, the “silica-induced nodule formation and collagen fiber deposition” value in the series with silicosis model mice [2] (100 mg/kg daily) and in the series with silicosis model mice [2] (150 mg/kg daily) was “reduced” in each case. Further, the “Silicotic Nodule Score (Mean ± SEM)” value is recorded as 0.32 ± 0.06 with silicosis model mice [2] (100 mg/kg once daily) and 0.35 ± 0.09 in the series on silicosis model mice [2] (150 mg/kg once daily). The “Inflammation Score (Mean ± SEM)” value with silicosis model mice [3] (100 mg/kg once daily) was found to be 1.22 ± 0.15; in the series with silicosis model mice [3] (150 mg/kg once daily), 1.22 ± 0.22. Also, in the series with silicosis model mice [4], the “mortality during the dosing period” value was “No mortality was observed”.
